Data reported in patent EP4813403A1, “USE OF GLP-1R/GIPR DOUBLE-TARGET AGONIST IN PREPARING ANIMAL DRUG” (Hangzhou Zhongmeihuadong Pharmaceutical Co., Ltd., priority 2023, dated 2025).

Legend:
[1] = target: T1, human GIPR (Homo sapiens, UniProt P48546); assay: Agonistic activity on GIPR of different species (LANCE Ultra cAMP assay): human; format: cell-based; details: ratio of EC50 value of other species to human EC50 value
T1 construct: expressed in transfected cells
T1 sequence (P48546 22-466): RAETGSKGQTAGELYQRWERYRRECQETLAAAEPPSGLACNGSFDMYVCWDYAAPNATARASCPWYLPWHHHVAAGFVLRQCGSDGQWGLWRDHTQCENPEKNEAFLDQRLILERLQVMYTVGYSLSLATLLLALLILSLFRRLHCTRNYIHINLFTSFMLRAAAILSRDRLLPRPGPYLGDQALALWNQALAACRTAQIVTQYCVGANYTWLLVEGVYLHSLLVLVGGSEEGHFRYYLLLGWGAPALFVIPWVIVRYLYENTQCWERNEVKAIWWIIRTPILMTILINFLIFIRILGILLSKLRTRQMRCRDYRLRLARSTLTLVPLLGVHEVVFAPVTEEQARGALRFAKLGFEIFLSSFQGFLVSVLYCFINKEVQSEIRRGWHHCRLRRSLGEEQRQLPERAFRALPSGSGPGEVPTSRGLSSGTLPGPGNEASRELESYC
Experimental: CHO-K1 cells were seeded in a 6-well plate at 0.6×10^6 cells/well and incubated overnight in an incubator at a temperature of 37 °C and a carbon dioxide concentration of 5%. The next day, CHO-K1 cell media were replaced. Then two tubes A and B were prepared for each plasmid. 100 µL Opti-MEM was added to tube A, then 4 µL Lipofectamine™ 3000 was added and mixed uniformly. 100 µL Opti-MEM was firstly added to tube B, then 2 µg of one of the plasmids (human GIPR-pcDNA5 (+) plasmid, dog GIPR-pcDNA5 (+) plasmid, mouse GIPR-pcDNA5 (+) plasmid, rat GIPR-pcDNA5 (+) plasmid, rabbit GIPR-pcDNA5 (+) plasmid, monkey GIPR-pcDNA5 (+) plasmid) was added and mixed uniformly, and 4 µL P3000™ was added to tube B and mixed uniformly (the ratio of plasmid to transfection reagent was 1 µg: 2 µL). […]
18-20 hours after transfection, human GIPR-CHO, dog GIPR-CHO, mouse GIPR-CHO, rat GIPR-CHO, rabbit GIPR-CHO, and monkey GIPR-CHO cells were resuspended in 1×Casein Stimulation Buffer (HBSS, 5 mM HEPES, 0.5 mM IBMX, 0.1% casein, pH7.4), and seeded into a 384-well cell culture plate at 9 µL/well (cell numbers being 1000, 2000, 2000, 2000, 2000, 2000 cells/well, respectively). […] The readings at 665 nm and 620 nm were determined with a 330 nm excitation light on a microplate reader. The 665 nm/620 nm reading ratio was calculated. […]

[2] = test system: obese cats; assay: Weight loss efficacy in obese cats; format: in vivo; details: s.c. QW escalating doses
Experimental: This study evaluated the weight loss efficacy of the compound of this invention through multiple subcutaneous administrations to obese cats, with changes in cat body weights being monitored. The study involved cats aged 8 months or older with a body condition score (BCS) of ≥6. […] G11 (control group), G12, G13, and […]. . Group G11 served as the vehicle control group. […] The animals' body weights were measured at a fixed time every 7 days after administration, and food intake was measured once per day. Blood tests for routine and biochemical parameters were conducted before grouping and on […]. Body condition score (BCS), feline body mass index (FBMI), and abdominal circumference (AC) were measured once a week. The data were statistically analyzed using ANOVA. If ANOVA yielded statistical significance (p < 0.05) and the variances were homogeneous, Tukey's test was used for intergroup comparisons. If the variances were heterogeneous, Dunnett's T3 test was used. Results are presented as means and standard errors of the mean (Mean ± SEM). The significance level was set at 0.05, and both statistical and biological significance were considered in the analysis.

## CC[C@H](C)[C@H](NC(=O)C(C)(C)NC(=O)[C@H](Cc1ccc(O)cc1)NC(=O)[C@H](CC(=O)O)NC(=O)[C@H](CO)NC(=O)[C@@H](NC(=O)C(C)(Cc1ccccc1)NC(=O)[C@@H](NC(=O)CNC(=O)[C@H](CCC(=O)O)NC(=O)C(C)(C)NC(=O)[C@@H](N)Cc1ccc(O)cc1)[C@@H](C)O)[C@@H](C)O)C(=O)NC(C)(C)C(=O)N[C@@H](CC(C)C)C(=O)N[C@@H](CC(=O)O)C(=O)N[C@@H](CCCCN)C(=O)N[C@@H](CCC(N)=O)C(=O)N[C@@H](C)C(=O)N[C@@H](CCC(N)=O)C(=O)N[C@@H](C)C(=O)N[C@@H](CCC(=O)O)C(=O)N[C@@H](Cc1ccccc1)C(=O)N[C@H](C(=O)N[C@@H](CCCCNC(=O)COCCOCCNC(=O)COCCOCCNC(=O)COCCOCCNC(=O)CC[C@H](NC(=O)CCCCCCCCCCCCCCCCCCCCC(=O)O)C(=O)O)C(=O)N[C@@H](Cc1c[nH]c2ccccc12)C(=O)N[C@@H](CC(C)C)C(=O)N[C@@H](CC(C)C)C(=O)N[C@@H](CCCCN)C(=O)NCC(=O)NCC(=O)N1CCC[C@H]1C(=O)N[C@@H](CO)C(=O)N[C@@H](CO)C(=O)NCC(=O)N[C@@H](C)C(=O)N1CCC[C@H]1C(=O)N1CCC[C@H]1C(=O)N1CCC[C@H]1C(=O)N[C@@H](CO)C(=O)N[C@@H](CCCCN)C(N)=O)C(C)C (stereo partly shown) [Compound P016]
[1]
  GIPR EC50 ratio: 1.00
[2]
  effective dose for weight loss: 96 nmol/kg
[2]; equivalent of the nmol/kg dose
  effective dose for weight loss: 0.5 mg/kg
[2]; five administrations
  maximum weight loss: 19.45%
